Here are results for one compound from PMC7857503, “Multivalent lipid targeting by the calcium-independent C2A domain of synaptotagmin-like protein 4/granuphilin” (The Journal of Biological Chemistry, 2020).

For the test, the target named is T1, Slp-4 C2A domain (synaptotagmin-like protein 4/granuphilin) (Homo sapiens, UniProt Q96C24).
T1 construct: gene SYTL4; C2A domain G352-S494; N-terminal GST cleaved by thrombin; E. coli BL21(DE3); cation-exchange purified, unmodified main peak
T1 sequence (Q96C24 352-494): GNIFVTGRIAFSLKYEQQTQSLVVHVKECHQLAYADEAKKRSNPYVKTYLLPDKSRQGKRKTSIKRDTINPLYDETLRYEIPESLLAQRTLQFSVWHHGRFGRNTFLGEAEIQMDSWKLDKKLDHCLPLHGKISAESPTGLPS
Put plainly: Trp-to-dansyl FRET, competitive displacement of protein from dansyl-PE liposomes. The class given is binding. The conditions noted are these: read-out: IC50 for IP6 (μM) ^a.

By IC50 is commonly meant the concentration at which inhibition is half-maximal. On to `O=P(O)(O)O[C@H]1[C@H](OP(=O)(O)O)[C@@H](OP(=O)(O)O)[C@H](OP(=O)(O)O)[C@@H](OP(=O)(O)O)[C@H]1OP(=O)(O)O` [IP6, D-myo-inositol-(1,2,3,4,5,6)-hexakisphosphate], for which the IC50 amounted to 620 ± 80 µM.
